Test [1] deals with coronaviruses. The experiment in a line: Killing of coronaviruses on treated surfaces versus a control surface. As to conditions: in 2 hours. How it is done:
88% more coronaviruses were killed on the treated surfaces than on a control surface, also in 2 hours.

Test [2] concerns coronaviruses. Kind of test: EN 14476 (Liquid Disinfectant Test). The conditions noted are these: in 2 hours.

On to “Paramolybdotungstate [Paramolybdotungstate Mo:W 1:1]”, for which, in the test on coronaviruses [1], the “more coronaviruses killed on treated surfaces than on a control surface” value is on record as 88%. Further, in the test on coronaviruses [2], the “log reduction of coronaviruses” value amounted to 4 log.
